Data on 57 compounds can be found in PubChem BioAssay AID1259334 (Broad Institute, 2017).

In the assay the test system is B cell line, TNFa signaling counterscreen reporter. In words: TNFa signaling inhibitors in B cell line, dose response, counter-screen (AID 1259334).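 Note: cells stimulated with TNFa after compound preincubation.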 Background: The purpose of a counterscreen is to sort out artefacts and off-target activity.

Values joined by “and” are separate entries in the source; they are usually repeats but may differ in a detail not shown here. Identical values can stand only once. Active and inactive are the calls of the source. Cut-off read from the data, not from the text of the source: active = AC50 below about 11 µM.

On to `COc1cccc(S(=O)(=O)N(C)C[C@@H]2OCc3ccccc3-c3c(n(C)c4ccccc34)C(=O)N([C@@H](C)CO)C[C@@H]2C)c1`, for which the AC50 – broadly, the concentration at which the activity in the assay is half-maximal – is > 20 µM (inactive).

On to `Cc1ccccc1C(=O)N1CCC(C(=O)Nc2nc3ccc(F)cc3s2)CC1`, for which the AC50 was 7.86 µM.

Turning to `COc1ccc(S(=O)(=O)Nc2ccc3c(c2)C(=O)N([C@@H](C)CO)C[C@@H](C)[C@H](CN(C)Cc2ccc(C(F)(F)F)cc2)OCCCC[C@@H](C)O3)cc1`, the AC50 was 8.32 µM.

Take `CC1=C(C#N)c2nc(N)c(C#N)c(C)c2/C1=C\c1ccccc1`: the AC50 was 3.57 µM.

In the case of `COc1ccc2c3c([nH]c2c1)[C@H](CO)N(C(=O)Nc1ccc(F)cc1)CC31CN(Cc2cc(F)ccc2F)C1`, the AC50 is > 20 µM (inactive).

Turning to `COc1ccc(S(=O)(=O)Nc2ccc3c(c2)C(=O)N([C@@H](C)CO)C[C@H](C)[C@@H](CN(C)Cc2ccc(C(F)(F)F)cc2)OCCCC[C@@H](C)O3)cc1`, the AC50 is 7.51 µM.

On to `O=C(c1ccc(Nc2nccc(-c3cc4ccccc4s3)n2)cc1)N1CCC(N2CCCC2)CC1`, for which the concentration at half-maximal activity (AC50) is 0.15 µM and 0.715 µM.

Turning to `Cc1noc(C)c1S(=O)(=O)Nc1ccc2c(c1)CC(=O)N([C@@H](C)CO)C[C@@H](C)[C@@H](CN(C)Cc1ccc(Oc3ccccc3)cc1)O2`, the concentration at half-maximal activity (AC50) was 7.01 µM.

In the case of `CCC1=C(CC2NCCc3ccccc32)CC2c3cc(OC)c(OC)cc3CCN2C1` (configuration not stated), the AC50 was 1.19 µM.

As to `Oc1c(Cl)cc(Cl)c(Cl)c1Cc1c(O)c(Cl)cc(Cl)c1Cl`, the AC50 is 2.69 µM.

As to `C[C@@H]1CN([C@@H](C)CO)C(=O)c2c(c3ccccc3n2C)-c2ccccc2CO[C@@H]1CN(C)C(=O)c1cc(Cl)cc(Cl)c1`, the AC50 was > 20 µM (inactive).

On to `C[n+]1c2n(c3ccccc31)N=C(c1ccc(-c3ccccc3)cc1)CS2`, for which the AC50 was 1.25 µM.

As for `CC(C)C1CC(N(C)C)=CC(=S)N1` (configuration not stated), the AC50 is 10.7 µM.

With `O=C(C1CC1)N1C[C@@H]2N[C@H](C1)C2c1ccc(-c2cccc(F)c2)cc1` (some centres not stated), the concentration at half-maximal activity (AC50) is 5.96 µM.

Take `OC1(c2ccc(Cl)c(C(F)(F)F)c2)CCN(CCCC(c2ccc(F)cc2)c2ccc(F)cc2)CC1`: the AC50 was 8.99 µM.

With `CC1=CC(C)(C)N=C(Nc2nc(C)c3cc(C)cc(C)c3n2)N1`, the AC50 was 2.49 µM.

Consider `CC1(C)C(=O)C=C[C@@]2(C)C1C(=O)C(=O)[C@]1(C)C2CC[C@@]2(C)[C@H](c3ccoc3)C[C@H]3O[C@]321` (some centres not stated), for which the concentration at half-maximal activity (AC50) is 1.74 µM.

On to `C[C@@H]1CCCCO[C@H](CN(C)CC2CCCCC2)[C@H](C)CN([C@@H](C)CO)C(=O)c2cc(NC(=O)Nc3ccc(C(F)(F)F)cc3)ccc2O1`, for which the AC50 is > 20 µM (inactive).

On to `c1cc(-c2cnn3cc(-c4ccc(OCCN5CCCCC5)cc4)cnc23)ccn1`, for which the AC50 is 1.13 µM.

`N#C[C@@H]1[C@H](c2ccc(C#CC3CCCCC3)cc2)[C@@H](CO)N1C(=O)Nc1ccc(F)cc1`: the AC50 was > 20 µM (inactive).

As for `N#Cc1cccc(-c2ccc(C3[C@H]4CNC[C@@H]3N4Cc3ccc4c(c3)OCO4)cc2)c1` (some centres not stated), the AC50 was 6.32 µM.

For the compound `C[C@H]1CN([C@@H](C)CO)C(=O)Cc2cc(NS(=O)(=O)c3cccs3)ccc2O[C@@H]1CN(C)Cc1ccc(Cl)c(Cl)c1`, the half-maximal activity concentration (AC50) was 7.19 µM.

For the compound `C1CCC(C(CC2CCCCN2)C2CCCCC2)CC1` (configuration not stated), the AC50 was 2.75 µM.

In the case of `O=C1NC2c3c(I)sc(I)c3C(=O)C2O1` (configuration not stated), the AC50 was 3.87 µM.

As for `c1ccc(-c2nnc(-c3ccccn3)nn2)nc1`, the half-maximal activity concentration (AC50) is 11.4 µM.

Regarding `CC(C)(C)OC(=O)CC(S(=O)(=O)c1ccccc1)S(=O)(=O)c1ccccc1`, the AC50 is 1.07 µM.

With `C[C@@H]1CN([C@@H](C)CO)C(=O)c2ccccc2-c2ccccc2CO[C@@H]1CN(C)Cc1ccc(Oc2ccccc2)cc1`, the AC50 was > 20 µM (inactive).

As for `N#C[C@@H]1[C@H](c2ccc(C#Cc3ccc(F)cc3)cc2)[C@@H](CO)N1C(=O)C1CCC1`, the half-maximal activity concentration (AC50) is 10.7 µM.

`CSC1SCC2C(=O)N(C)C(C(C)C)C(=O)OCC(NC(=O)c3cnc4ccccc4n3)C(=O)NC(C)C(=O)N(C)C1C(=O)N(C)C(C(C)C)C(=O)OCC(NC(=O)c1cnc3ccccc3n1)C(=O)NC(C)C(=O)N2C` (configuration not stated): the half-maximal activity concentration (AC50) is less than 0.0005 µM.

`O=S(=O)(CCSc1ccccn1)c1nc2ccccc2s1`: the AC50 is 5.13 µM.

Take `CC1=CC2OC3CC4OC(=O)C=CC=CC(=O)OCCC(C)C(O)C(=O)OCC2(CC1O)C4(C)C31CO1` (configuration not stated): the half-maximal activity concentration (AC50) was 0.00511 µM.

Regarding `NC(=NCCCCCCN=C(N)/N=C(\N)Nc1ccc(Cl)cc1)/N=C(\N)Nc1ccc(Cl)cc1`, the AC50 was 10.5 µM.

In the case of `C[C@@H]1CN([C@@H](C)CO)C(=O)c2c(c3ccccc3n2C)-c2ccccc2CO[C@H]1CN(C)Cc1cccc(C(F)(F)F)c1`, the AC50 is 6.02 µM.

Take `O=C1NC2C(O)C(O)C(O)C(O)C2c2cc3c(c(O)c21)OCO3` (configuration not stated): the AC50 was 0.125 µM.

For `C[C@@H]1CN([C@@H](C)CO)C(=O)c2c(c3ccccc3n2C)-c2ccccc2CO[C@H]1CN(C)C(=O)Nc1cccc(C(F)(F)F)c1`, the AC50 is 10.9 µM.

`N#Cc1c(Br)n(C2OC(CO)C(O)C2O)c2ncnc(N)c12` (configuration not stated): the AC50 was 1.16 µM.

On to `CC(=O)OC1CCC2(C)C(CCC3C4CC=C(C(C)=O)C4(C)OC(=O)CC32)C1` (configuration not stated), for which the AC50 was 1.65 µM.

Regarding `COc1ccc(C#Cc2ccc([C@H]3[C@@H](CO)N4CCCCN(S(=O)(=O)c5cn(C)cn5)C[C@H]34)cc2)cc1`, the AC50 is 8.82 µM.

Turning to `C=C1CC(Cn2cc(Br)c(=O)[nH]c2=O)(c2ccc(-c3ccccc3)cc2)OC1=O` (configuration not stated), the AC50 was 1.07 µM.

With `CC(C)c1c(O)ccc2c1CCC1C(C)(C)CCC[C@]21C` (some centres not stated), the AC50 is 5.43 µM.

On to `COC(=O)c1ccc2nc(NC(=O)C(C)(C)C)sc2c1`, for which the half-maximal activity concentration (AC50) is 2.32 µM.

Take `COc1ccc(CC2C(=O)NC(C)C(=O)N(C)C3C(=O)N(C)C(Cc4ccc(O)c(c4)Oc4ccc(cc4)C3O)C(=O)NC(C)C(=O)NC(C)C(=O)N2C)cc1` (configuration not stated): the AC50 was 0.0133 µM.

In the case of `O=C(Nc1ccc2c(c1)OCCO2)C1CCCC1`, the AC50 is 1.76 µM.

`CCC(C)(O)C(=O)OC1C(=O)OC2CC3C(C)=CC(=O)C(O)C3(C)C3C4(O)OCC23C1C(C)C4O` (configuration not stated): the AC50 is 0.0228 µM.

Take `c1ccc(-c2nc(-c3ccccn3)no2)cc1`: the AC50 is 3.9 µM.

`C=C1C(=O)C23C(O)C1CCC2C12CCCC(C)(COC(C)=O)C1C(O)C3(O)OC2` (configuration not stated): the AC50 is 0.507 µM.

`CC(C)(C)[C@H](N)C(=O)N[C@H]1CCC2C3CC=C4C[C@@H](O)CC[C@]4(C)C3CC[C@@]21C` (some centres not stated): the concentration at half-maximal activity (AC50) was 4.1 µM.

Take `CCOc1ccc(OCc2cccc(C(=O)N3CCOCC3)c2)cc1`: the AC50 is 2.84 µM.

Regarding `CC(C)Cc1ccc(C(C)/C=C2/CCC(CN3CCCCC3)C2=O)cc1` (configuration not stated), the AC50 is 8.62 µM.

With `CC(OC(=O)c1cc(Br)ccc1O)C(=O)Nc1ccc(S(=O)(=O)N2CCCC2)cc1` (configuration not stated), the AC50 was 7.82 µM.

`c1ccc(-c2ccc(-c3ccccn3)nn2)nc1`: the AC50 was 6.99 µM.

As for `CC(C)(C)CC(C)(C)c1ccc(O)c(Cc2ccc(Cl)cc2Cl)c1`, the AC50 is 5.5 µM.

In the case of `O=C(Cn1ncc(Cl)c(Cl)c1=O)NC1CCCCC1`, the AC50 is 2.42 µM.

As to `Cc1cc(OCC(=O)OCC(=O)NCc2ccco2)ccc1Cl`, the AC50 is > 20 µM (inactive).

For `COc1ccc(S(=O)(=O)N(C)C[C@H]2Oc3ccc(NC(=O)Nc4ccc(C(F)(F)F)cc4)cc3C(=O)N([C@H](C)CO)C[C@H]2C)cc1`, the AC50 was 8.38 µM.

In the case of `Cc1cc(C(=O)COC(=O)c2ccco2)c(C)n1Cc1ccco1`, the AC50 was 0.111 µM.

Regarding `Cc1nc(C)c(C(=O)Nc2ncc([N+](=O)[O-])s2)o1`, the concentration at half-maximal activity (AC50) is 8.61 µM.
